Measurements published in publication PMC6508677, “Identification of druggable small molecule antagonists of the Plasmodium falciparum hexose transporter PfHT and assessment of ligand access to the glucose permeation pathway via FLAG-mediated protein engineering” (PLoS ONE, 2019).
Where “and” joins values, the source holds several entries; their conditions need not be identical. Equal values may be shown once. Read-outs that look alike come from different tables or passages of the source.

Experiments:
PfHT [1] = target: T1, PfHT (Plasmodium falciparum, UniProt Q7KWJ5); assay: Kinetic analysis of 2-DG uptake (Km) in HEK293 cells overexpressing PfHT
T1 sequence (Q7KWJ5 1-504): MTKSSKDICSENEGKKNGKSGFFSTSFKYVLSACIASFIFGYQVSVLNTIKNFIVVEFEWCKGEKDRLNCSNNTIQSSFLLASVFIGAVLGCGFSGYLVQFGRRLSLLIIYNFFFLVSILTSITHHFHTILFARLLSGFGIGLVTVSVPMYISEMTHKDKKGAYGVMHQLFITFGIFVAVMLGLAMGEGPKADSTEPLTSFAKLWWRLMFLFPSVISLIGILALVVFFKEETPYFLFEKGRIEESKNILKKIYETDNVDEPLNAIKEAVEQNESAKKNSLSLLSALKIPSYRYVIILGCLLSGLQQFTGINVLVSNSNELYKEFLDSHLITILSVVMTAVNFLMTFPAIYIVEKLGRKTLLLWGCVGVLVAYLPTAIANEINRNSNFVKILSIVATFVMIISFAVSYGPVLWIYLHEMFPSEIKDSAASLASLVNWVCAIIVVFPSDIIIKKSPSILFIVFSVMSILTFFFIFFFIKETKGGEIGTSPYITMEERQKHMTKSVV
Protocol: (§3) Glucose uptake by P. falciparum was performed essentially as described [23]. P. falciparum strain 3D7 was cultured in 100 mm tissue culture dishes (Techno Plastic Products) in a 2% suspension of human erythrocytes and RPMI 1640 medium until reaching > 7.5% parasitemia. Cells were pelleted via centrifugation and resuspended in RPMI 1640 medium. To determine the uptake of radiolabeled glucose into the parasite, parasites were isolated from infected erythrocytes by permeablization with saponin (0.05 w/v), followed by centrifugation, aspiration of supernatant and washing of the pellet 3X with saline solution (135 mM NaCl, 2 mM KCl, 25 mM HEPES, 0.2 mM glucose and 1 mM MgCl2; pH 7.1) to remove cellular debris. WU-1 or DMSO vehicle were added to 100 μl parasites (resuspended in saline) 5 min prior to the addition of 100 μl [^14C]2-DOG (0.2- μCi/ml final concentration). 2-DG uptake was stopped after 2 min by layering the entire reaction over 300 μl of an oil mixture (5:4 mix of dibutyl phthalate / dinonyl phthalate) in Eppendorf tubes and centrifuged at 15,850 × g for 2 mins. The ratio of the estimated intracellular concentration of radiolabel relative to the extracellular concentration were calculated as described [23]. Uptake of radiolabeled hexose into HEK293 cells was measured in glucose-free HBSS as described previously [24]. Briefly, cells were plated at 400,000 cells/well overnight at 37°C in 24-well plates pre-treated with PEI. After 30-min incubation at 37°C in glucose-free HBSS in the presence of vehicle or increasing concentrations of compound, 2-DG uptake was measured in glucose-free HBSS for 4 min at 37°C. Cultures were washed in ice-cold 1X PBS and lysed in 0.1% Triton X-100 in 1X PBS. Radiolabeled hexose uptake was determined by liquid scintillation counting (Ultima Gold, Thermo Fisher) and normalized to total protein per well. Uptake data are plotted as percent uptake relative to vehicle-treated cells. Kinetic analyses were performed using the indicated concentrations of substrate and WU-1, with quenching of uptake after 1 min incubation. […] Data were fit by least squares nonlinear regression analysis using GraphPad Prism 6.0 software.

FTPfHT [2] = target: T2, FTPfHT (Plasmodium falciparum, UniProt Q7KWJ5); assay: Kinetic analysis of 2-DG uptake (Km) in HEK293 cells overexpressing FTPfHT; assay type: cell-based; parameters: the 38–40 kDa band represents full length PfHT; expressed in transfected cells; host or cells: HEK293-FLIP (HEK293); conditions: average of Expt 1-3
T2 sequence (Q7KWJ5 1-504): T1 sequence (Q7KWJ5 1-504)
Protocol: (§4) Glucose uptake by P. falciparum was performed essentially as described [23]. P. falciparum strain 3D7 was cultured in 100 mm tissue culture dishes (Techno Plastic Products) in a 2% suspension of human erythrocytes and RPMI 1640 medium until reaching > 7.5% parasitemia. Cells were pelleted via centrifugation and resuspended in RPMI 1640 medium. To determine the uptake of radiolabeled glucose into the parasite, parasites were isolated from infected erythrocytes by permeablization with saponin (0.05 w/v), followed by centrifugation, aspiration of supernatant and washing of the pellet 3X with saline solution (135 mM NaCl, 2 mM KCl, 25 mM HEPES, 0.2 mM glucose and 1 mM MgCl2; pH 7.1) to remove cellular debris. […] The ratio of the estimated intracellular concentration of radiolabel relative to the extracellular concentration were calculated as described [23]. Uptake of radiolabeled hexose into HEK293 cells was measured in glucose-free HBSS as described previously [24]. […] After 30-min incubation at 37°C in glucose-free HBSS in the presence of vehicle or increasing concentrations of compound, 2-DG uptake was measured in glucose-free HBSS for 4 min at 37°C. […] Radiolabeled hexose uptake was determined by liquid scintillation counting (Ultima Gold, Thermo Fisher) and normalized to total protein per well. […]

PfHT [3] = target: T1, PfHT; assay: 2-DG uptake by HEK293 cells overexpressing PfHT; assay type: cell-based; parameters: expressed in transfected cells; host or cells: HEK293 (HEK293-FLIP, native hGLUT1 knocked down by shRNA)
Excerpt: (§1) Generation of HEK293 cells overexpressing PfHT and human GLUTs 1–4 were described elsewhere. Briefly, HEK293 cells were transfected with pcDNA3.1 FLII12Pglu-7006 (Addgene), containing the fluorescence resonance energy transfer (FRET) glucose sensor (HEK293-FLIP) and PfHT, human GLUT1 (hGLUT1), hGLUT2, hGLUT3, hGLUT4, hGLUT5 or hGLUT8 using Optifect (Life Technologies) according to manufacturer’s specifications. To increase retention of GLUT8 at the plasma membrane, the dileucine sorting signal E^7E^8XXXLL was modified to R^7R^8XXXLL as described in [17]. Stable transfectants were selected for G418 and hygromycin resistance to select for FRET sensor and hexose transporter, respectively. HEK293-FLIP cells were also used to generate cells stably transfected with FLAG-tagged PfHT (FTPfHT). FLAG tag ([…]) followed by a triple glycine linker and a tobacco etch virus (TEV) protease site (ENLYFQS) followed by a triple glycine linker was added to the N-terminus of PfHT via PCR [18] using Phusion Hot Start II High-Fidelity DNA Polymerase (Fisher Scientific). Single clones were selected by comparing their abilities to transport glucose as assayed via FRET and radiolabeled hexose uptake. In all cell lines, except for HEK293 cells overexpressing hGLUT1 and hGLUT5, native hGLUT1 was knocked down using shRNA as described elsewhere. Transcript levels of the individual GLUTs expressed in each cell line are as described in [13, 15] and in S1 Fig.
(§2) Glucose uptake by P. falciparum was performed essentially as described. P. falciparum strain 3D7 was cultured in 100 mm tissue culture dishes (Techno Plastic Products) in a 2% suspension of human erythrocytes and RPMI 1640 medium until reaching > 7.5% parasitemia. Cells were pelleted via centrifugation and resuspended in RPMI 1640 medium. To determine the uptake of radiolabeled glucose into the parasite, parasites were isolated from infected erythrocytes by permeablization with saponin (0.05 w/v), followed by centrifugation, aspiration of supernatant and washing of the pellet 3X with saline solution (135 mM NaCl, 2 mM KCl, 25 mM HEPES, 0.2 mM glucose and 1 mM MgCl2; pH 7.1) to remove cellular debris. WU-1 or DMSO vehicle were added to 100 μl parasites (resuspended in saline) 5 min prior to the addition of 100 μl [^14C]2-DOG (0.2- μCi/ml final concentration). 2-DG uptake was stopped after 2 min by layering the entire reaction over 300 μl of an oil mixture (5:4 mix of dibutyl phthalate / dinonyl phthalate) in Eppendorf tubes and centrifuged at 15,850 × g for 2 mins. The ratio of the estimated intracellular concentration of radiolabel relative to the extracellular concentration were calculated as described. Uptake of radiolabeled hexose into HEK293 cells was measured in glucose-free HBSS as described previously. Briefly, cells were plated at 400,000 cells/well overnight at 37°C in 24-well plates pre-treated with PEI. After 30-min incubation at 37°C in glucose-free HBSS in the presence of vehicle or increasing concentrations of compound, 2-DG uptake was measured in glucose-free HBSS for 4 min at 37°C. Cultures were washed in ice-cold 1X PBS and lysed in 0.1% Triton X-100 in 1X PBS. Radiolabeled hexose uptake was determined by liquid scintillation counting (Ultima Gold, Thermo Fisher) and normalized to total protein per well. Uptake data are plotted as percent uptake relative to vehicle-treated cells. Kinetic analyses were performed using the indicated concentrations of substrate and WU-1, with quenching of uptake after 1 min incubation. Incubation times had been previously determined as being in the linear range of time-dependent radiolabeled hexose uptake (2 min for 2-DG uptake into freed parasites; 2 and 4 min for D-Frc and 2-DG uptake HEK cell lines, respectively). Data were fit by least squares nonlinear regression analysis using GraphPad Prism 6.0 software.

FTPfHT [4] = target: T2, FTPfHT; assay: 2-DG uptake by HEK293 cells overexpressing FLAG-tagged PfHT (FTPfHT); assay type: cell-based; parameters: the 38–40 kDa band represents full length PfHT; expressed in transfected cells; host or cells: HEK293-FLIP (HEK293); key to 2-DG Uptake AVE: % uptake relative to vehicle-treated cells
Excerpt: as §1, §2

GLUT1 Y293I = tested on: GLUT1 Y293I; parameters: method as in PMID 8157690; conditions: GLUT1 Y293I vs wild type; cited from earlier work
blood stage parasites = tested on: blood stage parasites; parameters: method as in PMID 26248369; conditions: read-out: IC50 against blood stage parasites; cited from earlier work
[5] = substrate: O=CC[C@@H](O)[C@H](O)[C@H](O)CO; assay: cells, lysate or membranes; assay type: cell-based, Plasmodium falciparum; conditions: other: 2-DG uptake (1 min), FTPfHT; pH 7.1; 37.0 °C
Protocol: as §4

[6] = substrate: O=CC[C@@H](O)[C@H](O)[C@H](O)CO; assay: cells, lysate or membranes; conditions: other: 2-DG uptake (1 min), PfHT; pH 7.1; 37.0 °C
Protocol: as §3

O=C(CO)[C@@H](O)[C@H](O)[C@H](O)CO [D-frc]
Km (1/v) D-frc uptake: AVE IC50 (PfHT [1]; average of Expt 1-3): 1830 µM
Km (1/v) D-frc uptake: IC50 (PfHT [1]; single experiments Expt 1-3): 2500 µM and 1600 µM and 1380 µM
Km (1/v) D-frc uptake: AVE IC50 (FTPfHT [2]): 2070 µM

CC1OC[C@H]2O[C@H](O)[C@H](O)[C@@H](O)[C@@H]2O1 (stereo partly drawn) [Ethylideneglucose, 4,6-O-ethylidene-α-D-glucose, reference compound]
IC50 (PfHT [3]; PfHT, 2-DG Uptake, average of Expt 1-3, read-out: AVE IC50): 5790 µM
IC50 (PfHT [3]; PfHT, 2-DG Uptake, single experiments Expt 1-3, read-out: IC50): 5990 µM
2-DG Uptake AVE (PfHT [3]; PfHT, concentration 0.001 mM, Expt 1-3): 100.00
2-DG Uptake AVE (PfHT [3]; PfHT, concentration 0.3125 mM): 94.37 and 96.75 and 86.10
2-DG Uptake AVE (PfHT [3]; PfHT, concentration 0.625 mM): 89.78 and 84.91 and 77.97
2-DG Uptake AVE (PfHT [3]; PfHT, concentration 1.25 mM): 82.38 and 77.88 and 79.22
2-DG Uptake AVE (PfHT [3]; PfHT, concentration 2.5 mM): 70.45 and 76.21 and 65.14
2-DG Uptake AVE (PfHT [3]; PfHT, concentration 5 mM): 56.80 and 57.04 and 54.41
2-DG Uptake AVE (PfHT [3]; PfHT, concentration 10 mM): 38.62 and 35.32 and 38.49
2-DG Uptake AVE (PfHT [3]; PfHT, concentration 20 mM): 25.77 and 23.49 and 21.21
2-DG Uptake AVE (PfHT [3]; PfHT, concentration 40 mM): 17.24 and 14.68 and 18.76
2-DG Uptake AVE (PfHT [3]; PfHT, concentration 80 mM): 11.01 and 10.15 and 11.14
2-DG Uptake AVE (PfHT [3]; PfHT, concentration 160 mM): 6.85 and 7.66 and 8.85
2-DG Uptake AVE (PfHT [3]; PfHT, concentration 320 mM): 4.36 and 4.29 and 5.25
IC50 (PfHT [3]; read-out: IC50 for inhibition of 2-DG uptake, HEK293 cells overexpressing PfHT): 5900 ± 150 µM
IC50 (FTPfHT [4]; FTPfHT, 2-DG Uptake, single experiments Expt 1-3, read-out: IC50): 1490 µM and 1830 µM and 1170 µM
2-DG Uptake AVE (FTPfHT [4]; FTPfHT, concentration 0.001 mM, Expt 1-3): 100.00
2-DG Uptake AVE (FTPfHT [4]; FTPfHT, concentration 0.0390625 mM): 96.35
2-DG Uptake AVE (FTPfHT [4]; FTPfHT, concentration 0.078125 mM): 89.02 and 99.10 and 95.29
2-DG Uptake AVE (FTPfHT [4]; FTPfHT, concentration 0.15625 mM): 83.11 and 96.24 and 85.58
2-DG Uptake AVE (FTPfHT [4]; FTPfHT, concentration 0.3125 mM): 83.21 and 82.95 and 84.08
2-DG Uptake AVE (FTPfHT [4]; FTPfHT, concentration 0.63 mM): 73.60 and 68.20 and 76.54
2-DG Uptake AVE (FTPfHT [4]; FTPfHT, concentration 1.25 mM): 62.34 and 52.24 and 56.96
2-DG Uptake AVE (FTPfHT [4]; FTPfHT, concentration 2.5 mM): 40.70 and 31.77 and 32.91
2-DG Uptake AVE (FTPfHT [4]; FTPfHT, concentration 5 mM): 18.95 and 15.78 and 18.06
2-DG Uptake AVE (FTPfHT [4]; FTPfHT, concentration 10 mM): 13.87 and 9.18 and 10.65
2-DG Uptake AVE (FTPfHT [4]; FTPfHT, concentration 20 mM): 7.63 and 6.14 and 7.00
2-DG Uptake AVE (FTPfHT [4]; FTPfHT, concentration 40 mM): 5.44 and 4.46 and 5.15
2-DG Uptake AVE (FTPfHT [4]; FTPfHT, concentration 80 mM): 5.14 and 3.60
IC50 (FTPfHT [4]; read-out: IC50 for inhibition of 2-DG uptake, HEK293 cells overexpressing FTPfHT): 1500 ± 200 µM
decrease of Ki by Y293I mutation (GLUT1 Y293I): > 2 fold

Cc1cccc(C)c1OCC(=O)N[C@@H](Cc1ccccc1)[C@@H](O)C[C@H](Cc1ccccc1)NC(=O)[C@H](C(C)C)N1CCCNC1=O [lopinavir]
IC50 (blood stage parasites): 16 µM

B1: FTPfHT (Plasmodium falciparum 3D7) (protein)
chain: T1 sequence (Q7KWJ5 1-504)
notes: the 38–40 kDa band represents full length PfHT; expressed in transfected cells; host or cells: HEK293-FLIP (HEK293)
Km [5]: 2100 ± 500 µM

B2: PfHT (Plasmodium falciparum 3D7) (protein)
chain: T1 sequence (Q7KWJ5 1-504)
Km [6]: 1800 ± 300 µM
